In US9993478B2, “1-pyrazolyl-3-(4-((2-anilinopyrimidin-4-yl) oxy) napththalen-1-yl) ureas as P38 MAP knase inhibitors” (Respivert Ltd., priority 2011, dated 2018):

Test system: d-U937 cells
Experiment: Cell viability: MTT assay
Format: cell-based, human
Details: 1 μg/mL
Description: Differentiated U937 cells were pre-incubated with each test compound (final concentration 1 μg/mL or 10 μg/mL in 200 μL media indicated below) under two protocols: the first for 4 hr in 5% FCS RPMI1640 media and the second in 10% FCS RPMI1640 media for 24 h. The supernatant was replaced with new media (200 μL) and MTT stock solution (10 μL, 5 mg/mL) was added to each well. After incubation for 1 hr the media were removed, DMSO (200 μL) was added to each well and the plates were shaken lightly for 1 hr prior to reading the absorbance at 550 nm. The percentage loss of cell viability was calculated for each well relative to vehicle (0.5% DMSO) treatment. Consequently an apparent increase in cell viability for drug treatment relative to vehicle is tabulated as a negative percentage.

CC(C)(C)c1cc(NC(=O)Nc2ccc(Oc3ccnc(Nc4ccccc4)n3)c3ccccc23)n(-c2ccc(O)cc2)n1 [Example 3, 1-(3-(tert-butyl)-1-(4-hydroxyphenyl)-1H-pyrazol-5-yl)-3-(4-((2-(phenylamino)pyrimidin-4-yl)oxy)naphthalen-1-yl)urea]
MTT Assay Cell viability at time point in d-U937 Cells 4 h: −ve (−ve and +ve indicate the value is below and above respectively, the no significant effect threshold defined as 30% inhibition at 1 μg/mL at the time point indicated)
MTT Assay Cell viability at time point in d-U937 Cells 24 h: −ve (−ve and +ve indicate the value is below and above respectively, the no significant effect threshold defined as 30% inhibition at 1 μg/mL at the time point indicated)

Cc1ccc(-n2nc(C(C)(C)C)cc2NC(=O)Nc2ccc(Oc3ccnc(Nc4ccccc4F)n3)c3ccccc23)cc1 [Example 4, 1-(3-(tert-butyl)-1-(p-tolyl)-1H-pyrazol-5-yl)-3-(4-((2-((2-fluorophenyl)amino)pyrimidin-4-yl)oxy)naphthalen-1-yl)urea]
MTT Assay Cell viability at time point in d-U937 Cells 4 h: −ve (−ve and +ve indicate the value is below and above respectively, the no significant effect threshold defined as 30% inhibition at 1 μg/mL at the time point indicated)
MTT Assay Cell viability at time point in d-U937 Cells 24 h: −ve (−ve and +ve indicate the value is below and above respectively, the no significant effect threshold defined as 30% inhibition at 1 μg/mL at the time point indicated)

COc1ccccc1Nc1nccc(Oc2ccc(NC(=O)Nc3cc(C(C)(C)C)nn3-c3ccc(C)cc3)c3ccccc23)n1 [Example 5, 1-(3-(tert-butyl)-1-(p-tolyl)-1H-pyrazol-5-yl)-3-(4-((2-((2-methoxyphenyl)amino)pyrimidin-4-yl)oxy)naphthalen-1-yl)urea]
MTT Assay Cell viability at time point in d-U937 Cells 4 h: −ve (−ve and +ve indicate the value is below and above respectively, the no significant effect threshold defined as 30% inhibition at 1 μg/mL at the time point indicated)
MTT Assay Cell viability at time point in d-U937 Cells 24 h: −ve (−ve and +ve indicate the value is below and above respectively, the no significant effect threshold defined as 30% inhibition at 1 μg/mL at the time point indicated)

Cc1ccc(-n2nc(C(C)(C)C)cc2NC(=O)Nc2ccc(Oc3ccnc(Nc4ccccc4Cl)n3)c3ccccc23)cc1 [Example 6, 1-(3-(tert-butyl)-1-(p-tolyl)-1H-pyrazol-5-yl)-3-(4-((2-((2-chlorophenyl)amino)pyrimidin-4-yl)oxy)naphthalen-1-yl)urea]
MTT Assay Cell viability at time point in d-U937 Cells 4 h: −ve (−ve and +ve indicate the value is below and above respectively, the no significant effect threshold defined as 30% inhibition at 1 μg/mL at the time point indicated)
MTT Assay Cell viability at time point in d-U937 Cells 24 h: −ve (−ve and +ve indicate the value is below and above respectively, the no significant effect threshold defined as 30% inhibition at 1 μg/mL at the time point indicated)

COc1ccc(-n2nc(C(C)(C)C)cc2NC(=O)Nc2ccc(Oc3ccnc(Nc4ccccc4)n3)c3ccccc23)cc1 [Example 7, 1-(3-(tert-butyl)-1-(4-methoxyphenyl)-1H-pyrazol-5-yl)-3-(4-((2-(phenylamino)pyrimidin-4-yl)oxy)naphthalen-1-yl)urea]
MTT Assay Cell viability at time point in d-U937 Cells 4 h: −ve (−ve and +ve indicate the value is below and above respectively, the no significant effect threshold defined as 30% inhibition at 1 μg/mL at the time point indicated)
MTT Assay Cell viability at time point in d-U937 Cells 24 h: −ve (−ve and +ve indicate the value is below and above respectively, the no significant effect threshold defined as 30% inhibition at 1 μg/mL at the time point indicated)

COc1ccc(Nc2nccc(Oc3ccc(NC(=O)Nc4cc(C(C)(C)C)nn4-c4ccc(C)cc4)c4ccccc34)n2)c(OC)c1 [Example 8, 1-(3-(tert-butyl)-1-(p-tolyl)-1H-pyrazol-5-yl)-3-(4-((2-((2,4-dimethoxyphenyl)amino)pyrimidin-4-yl)oxy)naphthalen-1-yl)urea]
MTT Assay Cell viability at time point in d-U937 Cells 4 h: −ve (−ve and +ve indicate the value is below and above respectively, the no significant effect threshold defined as 30% inhibition at 1 μg/mL at the time point indicated)
MTT Assay Cell viability at time point in d-U937 Cells 24 h: −ve (−ve and +ve indicate the value is below and above respectively, the no significant effect threshold defined as 30% inhibition at 1 μg/mL at the time point indicated)

Cc1ccc(-n2nc(C(C)(C)C)cc2NC(=O)Nc2ccc(Oc3ccnc(Nc4ccc(O)cc4)n3)c3ccccc23)cc1 [Example 9, 1-(3-(tert-butyl)-1-(p-tolyl)-1H-pyrazol-5-yl)-3-(4-((2-((4-hydroxyphenyl)amino)pyrimidin-4-yl)oxy)naphthalen-1-yl)urea]
MTT Assay Cell viability at time point in d-U937 Cells 4 h: −ve (−ve and +ve indicate the value is below and above respectively, the no significant effect threshold defined as 30% inhibition at 1 μg/mL at the time point indicated)
MTT Assay Cell viability at time point in d-U937 Cells 24 h: −ve (−ve and +ve indicate the value is below and above respectively, the no significant effect threshold defined as 30% inhibition at 1 μg/mL at the time point indicated)

Cc1ccc(-n2nc(C(C)(C)C)cc2NC(=O)Nc2ccc(Oc3ccnc(Nc4cc(C)ccc4C)n3)c3ccccc23)cc1 [Example 10, 1-(3-(tert-butyl)-1-(p-tolyl)-1H-pyrazol-5-yl)-3-(4-((2-((2,5-dimethylphenyl)amino)pyrimidin-4-yl)oxy)naphthalen-1-yl)urea]
MTT Assay Cell viability at time point in d-U937 Cells 4 h: −ve (−ve and +ve indicate the value is below and above respectively, the no significant effect threshold defined as 30% inhibition at 1 μg/mL at the time point indicated)
MTT Assay Cell viability at time point in d-U937 Cells 24 h: −ve (−ve and +ve indicate the value is below and above respectively, the no significant effect threshold defined as 30% inhibition at 1 μg/mL at the time point indicated)

Cc1ccc(Nc2nccc(Oc3ccc(NC(=O)Nc4cc(C(C)(C)C)nn4-c4ccc(C)cc4)c4ccccc34)n2)cc1 [Example 11, 1-(3-(tert-butyl)-1-(p-tolyl)-1H-pyrazol-5-yl)-3-(4-((2-(p-tolylamino)pyrimidin-4-yl)oxy)naphthalen-1-yl)urea]
MTT Assay Cell viability at time point in d-U937 Cells 4 h: −ve (−ve and +ve indicate the value is below and above respectively, the no significant effect threshold defined as 30% inhibition at 1 μg/mL at the time point indicated)
MTT Assay Cell viability at time point in d-U937 Cells 24 h: −ve (−ve and +ve indicate the value is below and above respectively, the no significant effect threshold defined as 30% inhibition at 1 μg/mL at the time point indicated)

Cc1ccc(-n2nc(C(C)(C)C)cc2NC(=O)Nc2ccc(Oc3ccnc(Nc4cccc(C)c4)n3)c3ccccc23)cc1 [Example 12, 1-(3-(tert-butyl)-1-(p-tolyl)-1H-pyrazol-5-yl)-3-(4-((2-(m-tolylamino)pyrimidin-4-yl)oxy)naphthalen-1-yl)urea]
MTT Assay Cell viability at time point in d-U937 Cells 4 h: −ve (−ve and +ve indicate the value is below and above respectively, the no significant effect threshold defined as 30% inhibition at 1 μg/mL at the time point indicated)
MTT Assay Cell viability at time point in d-U937 Cells 24 h: −ve (−ve and +ve indicate the value is below and above respectively, the no significant effect threshold defined as 30% inhibition at 1 μg/mL at the time point indicated)

Cc1ccc(-n2nc(C(C)(C)C)cc2NC(=O)Nc2ccc(Oc3ccnc(Nc4cccc(Cl)c4)n3)c3ccccc23)cc1 [Example 13, 1-(3-(tert-butyl)-1-(p-tolyl)-1H-pyrazol-5-yl)-3-(4-((2-((3-chlorophenyl)amino)pyrimidin-4-yl)oxy)naphthalen-1-yl)urea]
MTT Assay Cell viability at time point in d-U937 Cells 4 h: −ve (−ve and +ve indicate the value is below and above respectively, the no significant effect threshold defined as 30% inhibition at 1 μg/mL at the time point indicated)
MTT Assay Cell viability at time point in d-U937 Cells 24 h: −ve (−ve and +ve indicate the value is below and above respectively, the no significant effect threshold defined as 30% inhibition at 1 μg/mL at the time point indicated)

COc1cccc(Nc2nccc(Oc3ccc(NC(=O)Nc4cc(C(C)(C)C)nn4-c4ccc(C)cc4)c4ccccc34)n2)c1 [Example 14, 1-(3-(tert-butyl)-1-(p-tolyl)-1H-pyrazol-5-yl)-3-(4-((2-((3-methoxyphenyl)amino)pyrimidin-4-yl)oxy)naphthalen-1-yl)urea]
MTT Assay Cell viability at time point in d-U937 Cells 4 h: −ve (−ve and +ve indicate the value is below and above respectively, the no significant effect threshold defined as 30% inhibition at 1 μg/mL at the time point indicated)
MTT Assay Cell viability at time point in d-U937 Cells 24 h: −ve (−ve and +ve indicate the value is below and above respectively, the no significant effect threshold defined as 30% inhibition at 1 μg/mL at the time point indicated)

Cc1ccc(-n2nc(C(C)(C)C)cc2NC(=O)Nc2ccc(Oc3ccnc(Nc4cccc(F)c4)n3)c3ccccc23)cc1 [Example 15, 1-(3-(tert-butyl)-1-(p-tolyl)-1H-pyrazol-5-yl)-3-(4-((2-((3-fluorophenyl)amino)pyrimidin-4-yl)oxy)naphthalen-1-yl)urea]
MTT Assay Cell viability at time point in d-U937 Cells 4 h: −ve (−ve and +ve indicate the value is below and above respectively, the no significant effect threshold defined as 30% inhibition at 1 μg/mL at the time point indicated)
MTT Assay Cell viability at time point in d-U937 Cells 24 h: −ve (−ve and +ve indicate the value is below and above respectively, the no significant effect threshold defined as 30% inhibition at 1 μg/mL at the time point indicated)

Cc1ccc(-n2nc(C(C)(C)C)cc2NC(=O)Nc2ccc(Oc3ccnc(Nc4ccc(Cl)cc4)n3)c3ccccc23)cc1 [Example 16, 1-(3-(tert-butyl)-1-(p-tolyl)-1H-pyrazol-5-yl)-3-(4-((2-((4-chlorophenyl)amino)pyrimidin-4-yl)oxy)naphthalen-1-yl)urea]
MTT Assay Cell viability at time point in d-U937 Cells 4 h: −ve (−ve and +ve indicate the value is below and above respectively, the no significant effect threshold defined as 30% inhibition at 1 μg/mL at the time point indicated)
MTT Assay Cell viability at time point in d-U937 Cells 24 h: −ve (−ve and +ve indicate the value is below and above respectively, the no significant effect threshold defined as 30% inhibition at 1 μg/mL at the time point indicated)
